{
  "source": "ChEMBL document CHEMBL1154622",
  "about": "“Structure-guided design of potent and selective pyrimidylpyrrole inhibitors of extracellular signal-regulated kinase (ERK) using conformational control” (J Med Chem, 2009)",
  "key": {"[1]": {"molecular_target": "Serine/threonine-protein kinase MARK2 (Homo sapiens) (UniProt Q7KZI7)", "sequence (Q7KZI7 whole entry)": "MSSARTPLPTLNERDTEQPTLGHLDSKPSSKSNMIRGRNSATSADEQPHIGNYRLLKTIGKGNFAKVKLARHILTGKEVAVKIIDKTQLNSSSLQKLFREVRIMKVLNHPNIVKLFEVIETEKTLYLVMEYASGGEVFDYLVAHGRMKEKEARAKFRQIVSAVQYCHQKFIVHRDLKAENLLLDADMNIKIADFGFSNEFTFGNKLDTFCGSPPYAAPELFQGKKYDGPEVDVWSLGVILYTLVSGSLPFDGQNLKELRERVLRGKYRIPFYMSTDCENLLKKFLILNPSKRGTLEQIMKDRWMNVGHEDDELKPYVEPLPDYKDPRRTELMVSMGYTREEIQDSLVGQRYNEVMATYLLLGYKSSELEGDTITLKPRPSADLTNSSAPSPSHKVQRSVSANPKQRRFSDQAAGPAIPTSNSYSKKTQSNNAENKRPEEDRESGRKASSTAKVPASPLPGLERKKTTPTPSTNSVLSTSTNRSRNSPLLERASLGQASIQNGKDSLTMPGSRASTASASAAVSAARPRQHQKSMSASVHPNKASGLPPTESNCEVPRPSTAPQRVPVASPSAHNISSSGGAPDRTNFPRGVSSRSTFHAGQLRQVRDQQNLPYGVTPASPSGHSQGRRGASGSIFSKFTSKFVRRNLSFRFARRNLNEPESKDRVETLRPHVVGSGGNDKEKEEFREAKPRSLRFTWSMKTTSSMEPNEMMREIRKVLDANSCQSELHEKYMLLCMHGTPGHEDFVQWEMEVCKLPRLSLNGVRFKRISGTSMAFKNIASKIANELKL", "experiment": "Inhibition of PAR-1Balpha at 1 uM"}, "[2]": {"molecular_target": "Mitogen-activated protein kinase 8 (Homo sapiens) (UniProt P45983)", "experiment": "Inhibition of JNK1 at 2 uM"}, "[3]": {"molecular_target": "Phosphorylase b kinase gamma catalytic chain, liver/testis isoform (Homo sapiens) (UniProt P15735)", "experiment": "Inhibition of PHKgamma2 at 1 uM"}, "[4]": {"molecular_target": "Proto-oncogene tyrosine-protein kinase ROS (Homo sapiens) (UniProt P08922)", "experiment": "Inhibition of ROS at 1 uM"}, "[5]": {"experiment": "Plasma concentration in mouse at 5 mg/kg, iv after 8 hrs", "type": "ADME, organism-based", "design": "dose 5 mg/kg, route intravenous"}, "[6]": {"molecular_target": "Serine/threonine-protein kinase TBK1 (Homo sapiens, UniProt Q9UHD2)", "experiment": "Inhibition of NAK"}, "[7]": {"molecular_target": "Insulin receptor-related protein (Homo sapiens) (UniProt P14616)", "experiment": "Inhibition of IRR at 1 uM"}, "[8]": {"molecular_target": "Insulin-like growth factor 1 receptor (Homo sapiens) (UniProt P08069)", "sequence (P08069 31-736 limits assumed)": "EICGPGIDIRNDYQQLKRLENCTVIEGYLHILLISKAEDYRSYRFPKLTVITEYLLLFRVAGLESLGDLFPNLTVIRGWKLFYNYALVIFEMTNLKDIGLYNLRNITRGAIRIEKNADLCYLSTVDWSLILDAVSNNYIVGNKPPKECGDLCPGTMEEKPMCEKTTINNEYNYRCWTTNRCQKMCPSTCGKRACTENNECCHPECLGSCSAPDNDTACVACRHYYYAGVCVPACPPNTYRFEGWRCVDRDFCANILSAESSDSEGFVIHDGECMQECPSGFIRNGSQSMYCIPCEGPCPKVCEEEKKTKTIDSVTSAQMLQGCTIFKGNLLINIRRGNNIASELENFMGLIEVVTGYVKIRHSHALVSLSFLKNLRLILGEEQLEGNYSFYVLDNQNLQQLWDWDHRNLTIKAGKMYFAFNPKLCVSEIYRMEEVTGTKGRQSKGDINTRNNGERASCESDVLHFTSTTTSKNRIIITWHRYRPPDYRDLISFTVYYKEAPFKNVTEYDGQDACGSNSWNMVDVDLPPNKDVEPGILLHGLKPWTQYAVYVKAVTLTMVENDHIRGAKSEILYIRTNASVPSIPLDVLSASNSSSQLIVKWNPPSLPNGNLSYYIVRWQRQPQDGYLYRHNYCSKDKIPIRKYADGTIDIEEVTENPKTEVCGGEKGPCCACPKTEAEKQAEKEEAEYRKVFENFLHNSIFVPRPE", "sequence (P08069 741-1367 limits assumed)": "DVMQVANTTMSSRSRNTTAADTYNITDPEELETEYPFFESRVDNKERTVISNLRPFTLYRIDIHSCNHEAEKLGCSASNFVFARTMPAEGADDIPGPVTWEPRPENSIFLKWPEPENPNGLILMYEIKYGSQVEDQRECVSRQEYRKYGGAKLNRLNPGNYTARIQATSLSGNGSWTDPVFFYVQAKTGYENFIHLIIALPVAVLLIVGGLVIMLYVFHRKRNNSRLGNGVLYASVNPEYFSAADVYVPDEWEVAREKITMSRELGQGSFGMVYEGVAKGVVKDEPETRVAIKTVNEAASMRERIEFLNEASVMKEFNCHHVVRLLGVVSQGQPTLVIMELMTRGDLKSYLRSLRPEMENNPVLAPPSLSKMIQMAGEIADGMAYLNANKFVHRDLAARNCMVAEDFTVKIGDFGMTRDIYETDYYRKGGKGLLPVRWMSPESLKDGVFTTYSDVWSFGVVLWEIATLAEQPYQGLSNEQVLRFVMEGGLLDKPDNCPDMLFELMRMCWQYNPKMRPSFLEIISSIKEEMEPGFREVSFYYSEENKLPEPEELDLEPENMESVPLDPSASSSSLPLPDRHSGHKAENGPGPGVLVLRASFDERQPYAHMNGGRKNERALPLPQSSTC", "experiment": "Inhibition of IGF1R at 1 uM"}, "[9]": {"molecular_target": "RAC-gamma serine/threonine-protein kinase (Homo sapiens, UniProt Q9Y243)", "experiment": "Inhibition of AKT3"}, "[10]": {"experiment": "Inhibition of CK2 at 2 uM"}, "[11]": {"molecular_target": "Dual specificity mitogen-activated protein kinase kinase 6 (Homo sapiens) (UniProt P52564)", "experiment": "Inhibition of MKK6 at 2 uM"}, "[12]": {"experiment": "Half life in mouse at 5 mg/kg, iv", "type": "ADME, organism-based", "design": "dose 5 mg/kg, route intravenous", "details": "in vivo"}, "[13]": {"molecular_target": "Serine/threonine-protein kinase Sgk3 (Homo sapiens) (UniProt Q96BR1)", "experiment": "Inhibition of SGK3 at 1 uM"}, "[14]": {"experiment": "Oral bioavailability in rat at 10 mg/kg", "type": "ADME, organism-based", "details": "in vivo"}, "[15]": {"molecular_target": "Tyrosine-protein kinase Fer (Homo sapiens) (UniProt P16591)", "experiment": "Inhibition of FER at 1 uM"}, "[16]": {"experiment": "AUC (0 to 8 hrs) in mouse at 5 mg/kg, iv", "type": "ADME, organism-based", "design": "time < 8 hr, dose 5 mg/kg, route intravenous", "details": "plasma"}, "[17]": {"experiment": "Distribution coefficient, log D of the compound", "type": "physicochemical", "details": "octanol/water"}, "[18]": {"molecular_target": "T1, Aurora kinase A (Homo sapiens, UniProt O14965)", "T1 sequence (O14965 whole entry)": "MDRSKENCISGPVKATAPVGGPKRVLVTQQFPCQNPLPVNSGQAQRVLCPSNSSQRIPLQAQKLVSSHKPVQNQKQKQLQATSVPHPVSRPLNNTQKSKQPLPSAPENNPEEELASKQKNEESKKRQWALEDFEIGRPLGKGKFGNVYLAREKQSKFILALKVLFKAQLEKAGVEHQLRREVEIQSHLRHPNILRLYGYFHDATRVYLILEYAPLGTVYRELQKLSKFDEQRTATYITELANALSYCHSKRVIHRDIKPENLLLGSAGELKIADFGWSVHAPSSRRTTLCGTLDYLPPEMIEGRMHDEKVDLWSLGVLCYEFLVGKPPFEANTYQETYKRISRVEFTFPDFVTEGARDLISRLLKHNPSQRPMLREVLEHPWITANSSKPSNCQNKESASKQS", "experiment": "Inhibition of AURA"}, "[19]": {"molecular_target": "Serine/threonine-protein kinase Nek2 (Homo sapiens) (UniProt P51955)", "experiment": "Inhibition of NEK2 at 1 uM"}, "[20]": {"molecular_target": "Hepatocyte growth factor receptor (Homo sapiens, UniProt P08581)", "experiment": "Inhibition of MET"}, "[21]": {"experiment": "Half life in mouse at 33 mg/kg, po", "type": "ADME, organism-based", "design": "dose 33 mg/kg, route oral", "details": "in vivo"}, "[22]": {"molecular_target": "Serine/threonine-protein kinase Sgk1 (Homo sapiens, UniProt O00141)", "experiment": "Inhibition of SGK1"}, "[23]": {"molecular_target": "Serine/threonine-protein kinase N2 (Homo sapiens) (UniProt Q16513)", "experiment": "Inhibition of PRK2 at 2 uM"}, "[24]": {"molecular_target": "Serine/threonine-protein kinase MARK1 (Homo sapiens) (UniProt Q9P0L2)", "experiment": "Inhibition of MARK1 at 1 uM"}, "[25]": {"molecular_target": "Protein kinase C theta type (Homo sapiens) (UniProt Q04759)", "experiment": "Inhibition of PKCtheta at 2 uM"}, "[26]": {"experiment": "AUC (0 to 8 hrs) in rat at 3 mg/kg, iv", "type": "ADME, organism-based", "design": "time < 8 hr, dose 3 mg/kg, route intravenous", "details": "plasma"}, "[27]": {"experiment": "Clearance in mouse at 5 mg/kg, iv", "type": "ADME, organism-based", "design": "dose 5 mg/kg, route intravenous", "details": "in vivo"}, "[28]": {"molecular_target": "Macrophage-stimulating protein receptor (Homo sapiens) (UniProt Q04912)", "experiment": "Inhibition of RON at 1 uM"}, "[29]": {"molecular_target": "Serine/threonine-protein kinase Sgk2 (Homo sapiens) (UniProt Q9HBY8)", "experiment": "Inhibition of SGK2 at 1 uM"}, "[30]": {"molecular_target": "Mitogen-activated protein kinase kinase kinase 3 (Homo sapiens, UniProt Q99759)", "sequence (Q99759 whole entry)": "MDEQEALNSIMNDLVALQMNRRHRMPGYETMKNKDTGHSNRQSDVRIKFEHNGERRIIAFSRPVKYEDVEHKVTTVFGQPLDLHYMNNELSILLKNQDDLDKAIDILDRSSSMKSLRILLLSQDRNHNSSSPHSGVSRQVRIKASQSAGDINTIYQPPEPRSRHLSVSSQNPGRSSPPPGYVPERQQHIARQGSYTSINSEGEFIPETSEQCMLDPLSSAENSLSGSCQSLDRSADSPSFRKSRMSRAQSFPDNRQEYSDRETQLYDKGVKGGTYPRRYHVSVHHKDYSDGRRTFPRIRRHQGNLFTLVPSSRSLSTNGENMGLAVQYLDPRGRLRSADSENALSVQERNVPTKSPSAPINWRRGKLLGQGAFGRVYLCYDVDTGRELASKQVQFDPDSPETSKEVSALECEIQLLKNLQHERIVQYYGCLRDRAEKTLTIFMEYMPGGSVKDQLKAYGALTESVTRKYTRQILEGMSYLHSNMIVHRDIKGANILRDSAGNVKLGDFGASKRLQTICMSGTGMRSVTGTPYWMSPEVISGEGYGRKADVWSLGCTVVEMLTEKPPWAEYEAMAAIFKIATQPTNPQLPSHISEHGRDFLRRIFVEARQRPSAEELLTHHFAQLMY", "experiment": "Inhibition of MEKK3"}, "[31]": {"experiment": "Plasma concentration in rat at 3 mg/kg, iv after 4 hrs", "type": "ADME, organism-based", "design": "dose 3 mg/kg, route intravenous"}, "[32]": {"molecular_target": "Dual specificity protein kinase CLK3 (Homo sapiens) (UniProt P49761)", "details": "1 uM", "description": "Inhibition of CLK3 at 1 uM"}, "[33]": {"molecular_target": "Serine/threonine-protein kinase TBK1 (Homo sapiens) (UniProt Q9UHD2)", "experiment": "Inhibition of TBK1 at 1 uM"}, "[34]": {"molecular_target": "Epidermal growth factor receptor (Homo sapiens) (UniProt P00533)", "experiment": "Inhibition of EGFR at 1 uM"}, "[35]": {"molecular_target": "Protein kinase C alpha type (Homo sapiens) (UniProt P17252)", "experiment": "Inhibition of PKCalpha at 2 uM"}, "[36]": {"molecular_target": "Tyrosine-protein kinase Lck (Homo sapiens) (UniProt P06239)", "experiment": "Inhibition of LCK at 2 uM"}, "[37]": {"molecular_target": "Proto-oncogene tyrosine-protein kinase receptor Ret (Homo sapiens) (UniProt P07949)", "experiment": "Inhibition of RET at 1 uM"}, "[38]": {"molecular_target": "Mitogen-activated protein kinase 11 (Homo sapiens) (UniProt Q15759)", "experiment": "Inhibition of P38beta at 2 uM"}, "[39]": {"experiment": "Half life in rat at 10 mg/kg, po", "type": "ADME, organism-based", "design": "dose 10 mg/kg, route oral", "details": "in vivo"}, "[40]": {"molecular_target": "Interleukin-1 receptor-associated kinase 1 (Homo sapiens, UniProt P51617)", "sequence (P51617 whole entry)": "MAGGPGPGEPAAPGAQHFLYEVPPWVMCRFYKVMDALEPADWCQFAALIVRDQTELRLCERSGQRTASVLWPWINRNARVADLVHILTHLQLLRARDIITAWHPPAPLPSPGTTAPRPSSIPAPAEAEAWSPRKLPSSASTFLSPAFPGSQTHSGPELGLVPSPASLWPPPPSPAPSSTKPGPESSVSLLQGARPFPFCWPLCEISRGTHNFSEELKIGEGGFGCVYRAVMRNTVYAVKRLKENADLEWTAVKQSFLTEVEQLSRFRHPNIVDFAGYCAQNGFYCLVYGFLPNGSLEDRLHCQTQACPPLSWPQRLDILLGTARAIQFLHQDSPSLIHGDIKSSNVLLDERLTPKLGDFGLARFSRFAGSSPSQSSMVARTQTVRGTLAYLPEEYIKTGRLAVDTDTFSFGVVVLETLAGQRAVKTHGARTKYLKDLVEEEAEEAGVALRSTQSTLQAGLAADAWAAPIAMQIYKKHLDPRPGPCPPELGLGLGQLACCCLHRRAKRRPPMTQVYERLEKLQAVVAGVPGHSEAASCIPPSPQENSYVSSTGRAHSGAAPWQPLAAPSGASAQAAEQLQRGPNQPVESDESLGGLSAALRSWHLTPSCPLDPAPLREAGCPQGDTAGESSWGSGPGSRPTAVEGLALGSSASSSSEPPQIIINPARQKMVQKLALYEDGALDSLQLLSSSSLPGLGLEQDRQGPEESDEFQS", "experiment": "Inhibition of IRAK1"}, "[41]": {"experiment": "Volume of distribution at steady state in rat at 3 mg/kg, iv", "type": "ADME, organism-based", "design": "dose 3 mg/kg, route intravenous", "details": "in vivo, read-out: Vdss"}, "[42]": {"molecular_target": "Mitogen-activated protein kinase kinase kinase 7 (Homo sapiens, UniProt O43318)", "sequence (O43318 whole entry)": "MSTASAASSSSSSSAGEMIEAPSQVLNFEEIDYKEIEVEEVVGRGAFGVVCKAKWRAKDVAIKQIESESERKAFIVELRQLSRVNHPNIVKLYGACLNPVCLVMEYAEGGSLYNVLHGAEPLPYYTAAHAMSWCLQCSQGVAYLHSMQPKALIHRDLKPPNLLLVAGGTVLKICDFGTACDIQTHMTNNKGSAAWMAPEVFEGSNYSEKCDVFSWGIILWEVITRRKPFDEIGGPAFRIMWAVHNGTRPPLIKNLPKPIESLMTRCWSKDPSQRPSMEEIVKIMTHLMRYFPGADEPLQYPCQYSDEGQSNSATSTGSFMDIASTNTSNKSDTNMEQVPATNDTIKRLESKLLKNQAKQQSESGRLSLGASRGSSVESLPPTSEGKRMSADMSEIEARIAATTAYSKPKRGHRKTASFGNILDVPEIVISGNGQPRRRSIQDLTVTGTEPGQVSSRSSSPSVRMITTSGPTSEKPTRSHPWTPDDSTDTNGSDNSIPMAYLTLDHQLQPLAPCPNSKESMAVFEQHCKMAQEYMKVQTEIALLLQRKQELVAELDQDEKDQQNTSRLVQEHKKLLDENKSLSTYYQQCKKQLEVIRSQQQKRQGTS", "experiment": "Inhibition of TAK1"}, "[43]": {"molecular_target": "Protein kinase C gamma type (Homo sapiens) (UniProt P05129)", "experiment": "Inhibition of PKCgamma at 2 uM"}, "[44]": {"molecular_target": "Dual specificity tyrosine-phosphorylation-regulated kinase 2 (Homo sapiens) (UniProt Q92630)", "experiment": "Inhibition of DYRK2 at 1 uM"}, "[45]": {"molecular_target": "Serine/threonine-protein kinase D3 (Homo sapiens) (UniProt O94806)", "experiment": "Inhibition of PRKD3 at 1 uM"}, "[46]": {"molecular_target": "Serine/threonine-protein kinase D1 (Homo sapiens) (UniProt Q15139)", "experiment": "Inhibition of PRKD1 at 1 uM"}, "[47]": {"molecular_target": "Dual specificity mitogen-activated protein kinase kinase 7 (Homo sapiens) (UniProt O14733)", "experiment": "Inhibition of MKK7 at 2 uM"}, "[48]": {"system": "HT-29", "experiment": "Antiproliferative activity against human HT-29 cells", "type": "functional, cell-based"}},
  "data": [
    {"smiles": "Cc1cnc(Nc2ccc(F)cc2Cl)nc1-c1c[nH]c(C(=O)N[C@H](CO)c2cccc(Cl)c2)c1", "values": [
      {"measurement": "inhibition", "setting": "[1]", "value": 5, "unit": "%"},
      {"measurement": "inhibition", "setting": "[2]", "value": 34, "unit": "%"},
      {"measurement": "inhibition", "setting": "[3]", "value": 4, "unit": "%"},
      {"measurement": "inhibition", "setting": "[4]", "value": 3, "unit": "%"},
      {"measurement": "concentration at 8 h", "setting": "[5]", "value": 17, "unit": "ng/mL"},
      {"measurement": "Ki", "setting": "[6]", "value": "> 10", "unit": "µM"},
      {"measurement": "inhibition", "setting": "[7]", "value": 0, "unit": "%"},
      {"measurement": "inhibition", "setting": "[8]", "value": 2, "unit": "%"},
      {"measurement": "Ki", "setting": "[9]", "value": "> 4", "unit": "µM"},
      {"measurement": "inhibition", "setting": "[10]", "value": 0, "unit": "%"},
      {"measurement": "inhibition", "setting": "[11]", "value": 9, "unit": "%"},
      {"measurement": "half-life", "setting": "[12]", "value": 1.6, "unit": "h"},
      {"measurement": "inhibition", "setting": "[13]", "value": 2, "unit": "%"},
      {"measurement": "bioavailability", "setting": "[14]", "value": 65, "unit": "%"},
      {"measurement": "inhibition", "setting": "[15]", "value": 3, "unit": "%"},
      {"measurement": "AUC(0-t) at 8 h", "setting": "[16]", "value": 1600, "unit": "ng·h/mL"},
      {"measurement": "logD", "setting": "[17]", "value": 4.3},
      {"measurement": "Ki", "setting": "[18]", "value": 0.54, "unit": "µM"},
      {"measurement": "inhibition", "setting": "[19]", "value": 3, "unit": "%"},
      {"measurement": "Ki", "setting": "[20]", "value": "> 4", "unit": "µM"},
      {"measurement": "half-life", "setting": "[21]", "value": 4.4, "unit": "h"},
      {"measurement": "Ki", "setting": "[22]", "value": "> 10", "unit": "µM"},
      {"measurement": "inhibition", "setting": "[23]", "value": 14, "unit": "%"},
      {"measurement": "inhibition", "setting": "[24]", "value": 12, "unit": "%"},
      {"measurement": "inhibition", "setting": "[25]", "value": 17, "unit": "%"},
      {"measurement": "AUC(0-t) at 8 h", "setting": "[26]", "value": 1600, "unit": "ng·h/mL"},
      {"measurement": "clearance", "setting": "[27]", "value": 55, "unit": "mL/min/kg"},
      {"measurement": "inhibition", "setting": "[28]", "value": 1, "unit": "%"},
      {"measurement": "inhibition", "setting": "[29]", "value": 41, "unit": "%"},
      {"measurement": "Ki", "setting": "[30]", "value": "> 4", "unit": "µM"},
      {"measurement": "concentration at 4 h", "setting": "[31]", "value": 123, "unit": "ng/mL"},
      {"measurement": "inhibition", "setting": "[32]", "value": 9, "unit": "%"},
      {"measurement": "inhibition", "setting": "[33]", "value": 3, "unit": "%"},
      {"measurement": "inhibition", "setting": "[34]", "value": 6, "unit": "%"},
      {"measurement": "inhibition", "setting": "[35]", "value": 12, "unit": "%"},
      {"measurement": "inhibition", "setting": "[36]", "value": 3, "unit": "%"},
      {"measurement": "inhibition", "setting": "[37]", "value": 3, "unit": "%"},
      {"measurement": "inhibition", "setting": "[38]", "value": 25, "unit": "%"},
      {"measurement": "half-life", "setting": "[39]", "value": 3, "unit": "h"},
      {"measurement": "Ki", "setting": "[40]", "value": "> 10", "unit": "µM"},
      {"measurement": "Vd", "setting": "[41]", "value": 4.9, "unit": "L/kg"},
      {"measurement": "Ki", "setting": "[42]", "value": 3, "unit": "µM"},
      {"measurement": "inhibition", "setting": "[43]", "value": 11, "unit": "%"},
      {"measurement": "inhibition", "setting": "[44]", "value": 3, "unit": "%"},
      {"measurement": "inhibition", "setting": "[45]", "value": 21, "unit": "%"},
      {"measurement": "inhibition", "setting": "[46]", "value": 43, "unit": "%"},
      {"measurement": "inhibition", "setting": "[47]", "value": 6, "unit": "%"},
      {"measurement": "IC50", "setting": "[48]", "value": 0.048, "unit": "µM"}
    ]}
  ]
}
